molecular target: PD-1/PD-L1 (Homo sapiens (Human), UniProt Q9NZQ7); assay: PD-1/PD-L1 binding assay (HTRF)
Description: The assays were conducted in a standard black 384-well polystyrene plate with a final volume of 20 μL. Inhibitors were first serially diluted in DMSO and then added to the plate wells before the addition of other reaction components. The final concentration of DMSO in the assay was 1%. The assays were carried out at 25° C. in the PBS buffer (pH 7.4) with 0.05% Tween-20 and 0.1% BSA. Recombinant human PD-L1 protein (19-238) with a His-tag at the C-terminus was purchased from AcroBiosystems (PD1-H5229). Recombinant human PD-1 protein (25-167) with Fc tag at the C-terminus was also purchased from AcroBiosystems (PD1-H5257). PD-L1 and PD-1 proteins were diluted in the assay buffer and 10 μL was added to the plate well. Plates were centrifuged and proteins were preincubated with inhibitors for 40 minutes. The incubation was followed by the addition of 10 μL of HTRF detection buffer supplemented with Europium cryptate-labeled anti-human IgG (PerkinElmer-AD0212) specific for Fc and anti-His antibody conjugated to SureLight®-Allophycocyanin (APC, PerkinElmer-AD0059H). After centrifugation, the plate was incubated at 25° C. for 60 min. before reading on a PHERAstar FS plate reader (665 nm/620 nm ratio). Final concentrations in the assay were […], 10 nM PD-L1, 1 nM europium anti-human IgG and 20 nM anti-His-Allophycocyanin. IC50 determination was performed by fitting the curve of percent control activity versus the log of the inhibitor concentration using the GraphPad Prism 5.0 software.

PD-1/PD-L1, sequence (Q9NZQ7 19-238): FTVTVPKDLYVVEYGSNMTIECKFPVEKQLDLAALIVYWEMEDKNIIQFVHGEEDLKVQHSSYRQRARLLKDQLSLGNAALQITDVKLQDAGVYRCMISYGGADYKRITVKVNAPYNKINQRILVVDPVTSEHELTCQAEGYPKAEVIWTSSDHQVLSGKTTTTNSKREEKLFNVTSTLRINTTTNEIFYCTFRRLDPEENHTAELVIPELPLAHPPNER

IC50, ≤ 10 nM:
Cc1c(NC(=O)c2nc3c(n2C)CCN(C2CCOCC2)C3)cccc1-c1cccc(NC(=O)c2nc3c(n2C)CCN(C[C@H]2CC[C@@H](C(=O)O)CC2)C3)c1Cl [Example 136, cis-4-((2-((2-chloro-2′-methyl-3′-(1-methyl-5-(tetrahydro-2H-pyran-4-yl)-4,5,6,7-tetrahydro-1H-imidazo[4,5-c]pyridine-2-carboxamido)-[1,1′-biphenyl]-3-yl)carbamoyl)-1-methyl-1,4,6,7-tetrahydro-5H-imidazo[4,5-c]pyridin-5-yl)methyl)cyclohexane-1-carboxylic Acid]
Cn1c(C(=O)Nc2cccc(-c3cccc(NC(=O)c4nc5c(n4C)CCN(CC[C@H]4CC[C@H](C(=O)O)CC4)C5)c3Cl)c2Cl)nc2c1CCN(CCO)C2 [Example 93, trans-4-(2-(2-((2,2′-dichloro-3′-(5-(2-hydroxyethyl)-1-methyl-4,5,6,7-tetrahydro-1H-imidazo[4,5-c]pyridine-2-carboxamido)-[1,1′-biphenyl]-3-yl)carbamoyl)-1-methyl-1,4,6,7-tetrahydro-5H-imidazo[4,5-c]pyridin-5-yl)ethyl)cyclohexane-1-carboxylic acid]
CCN1CCc2c(nc(C(=O)Nc3cccc(-c4cccc(NC(=O)c5nc6c(n5C)CCN(C[C@H]5CC[C@@H](C(=O)O)CC5)C6)c4Cl)c3Cl)n2C)C1 [Example 70, cis-4-((2-((2,2′-dichloro-3′-(5-ethyl-1-methyl-4,5,6,7-tetrahydro-1H-imidazo[4,5-c]pyridine-2-carboxamido)-[1,1′-biphenyl]-3-yl)carbamoyl)-1-methyl-1,4,6,7-tetrahydro-5H-imidazo[4,5-c]pyridin-5-yl)methyl)cyclohexane-1-carboxylic acid]
Cn1c(C(=O)Nc2cccc(-c3cccc(NC(=O)c4nc5c(n4C)CCN(C4CCOCC4)C5)c3Cl)c2Cl)nc2c1CCN(C[C@H]1CC[C@H](C(=O)O)CC1)C2 [Example 64, trans-4-((2-(2,2′-dichloro-3′-(1-methyl-5-(tetrahydro-2H-pyran-4-yl)-4,5,6,7-tetrahydro-1H-imidazo[4,5-c]pyridine-2-carboxamido)biphenyl-3-ylcarbamoyl)-1-methyl-6,7-dihydro-1H-imidazo[4,5-c]pyridin-5(4H)-yl)methyl)cyclohexane-1-carboxylic acid]
Cn1c(C(=O)Nc2cccc(-c3cccc(NC(=O)c4nc5c(n4C)CCN(CC[C@H]4CC[C@H](C(=O)O)CC4)C5)c3Cl)c2Cl)nc2c1CCNC2 [Example 85, trans-4-(2-(2-((2,2′-dichloro-3′-(1-methyl-4,5,6,7-tetrahydro-1H-imidazo[4,5-c]pyridine-2-carboxamido)-[1,1′-biphenyl]-3-yl)carbamoyl)-1-methyl-1,4,6,7-tetrahydro-5H-imidazo[4,5-c]pyridin-5-yl)ethyl)cyclohexane-1-carboxylic acid]
Cc1c(NC(=O)c2nc3c(n2C)CCN(C2CCC(O)CC2)C3)cccc1-c1cccc(NC(=O)c2nc3c(n2C)CCN(CC[C@H]2CC[C@H](C(=O)O)CC2)C3)c1Cl (single isomer, unassigned) [Compound 134-1, Trans-4-(2-(2-(2-chloro-3′-(5-(4-hydroxycyclohexyl)-1-methyl-4,5,6,7-tetrahydro-1H-imidazo[4,5-c]pyridine-2-carboxamido)-2′-methylbiphenyl-3-ylcarbamoyl)-1-methyl-6,7-dihydro-1H-imidazo[4,5-c]pyridin-5(4H)-yl)ethyl)cyclohexane-1-carboxylic Acid]
Cc1c(NC(=O)c2nc3c(n2C)CCN(C[C@H](C)O)C3)cccc1-c1cccc(NC(=O)c2nc3c(n2C)CCN(C2CCC(C)(C(=O)O)CC2)C3)c1Cl (single isomer, unassigned) [143 (compound 143-1)]
Cc1c(NC(=O)c2nc3c(n2C)CCN(CC2(CO)CC2)C3)cccc1-c1cccc(NC(=O)c2nc3c(n2C)CCN(C)C3)c1Cl [Example 31, N-(2′-chloro-3′-(1,5-dimethyl-4,5,6,7-tetrahydro-1H-imidazo[4,5-c]pyridine-2-carboxamido)-2-methylbiphenyl-3-yl)-5-((1-(hydroxymethyl)cyclopropyl)methyl)-1-methyl-4,5,6,7-tetrahydro-1H-imidazo[4,5-c]pyridine-2-carboxamide]
Cc1c(NC(=O)c2nc3c(n2C)CCN(CC24CCC(C(=O)O)(CC2)C4)C3)cccc1-c1cccc(NC(=O)c2nc3c(n2C)CCN(C)C3)c1Cl [Example 102, 4-((2-((2′-chloro-3′-(1,5-dimethyl-4,5,6,7-tetrahydro-1H-imidazo[4,5-c]pyridine-2-carboxamido)-2-methyl-[1,1′-biphenyl]-3-yl)carbamoyl)-1-methyl-1,4,6,7-tetrahydro-5H-imidazo[4,5-c]pyridin-5-yl)methyl)bicyclo[2.2.1]heptane-1-carboxylic acid]
CN1CCc2c(nc(C(=O)Nc3cccc(-c4cccc(NC(=O)c5nc6c(n5C)CCN(CCO)C6)c4Cl)c3C#N)n2C)C1 [Example 38, N-(2-chloro-2′-cyano-3′-(1,5-dimethyl-4,5,6,7-tetrahydro-1H-imidazo[4,5-c]pyridine-2-carboxamido)biphenyl-3-yl)-5-(2-hydroxyethyl)-1-methyl-4,5,6,7-tetrahydro-1H-imidazo[4,5-c]pyridine-2-carboxamide]
CC(C)N1CCc2c(nc(C(=O)Nc3cccc(-c4cccc(NC(=O)c5nc6c(n5C)CCN(CC[C@H]5CC[C@H](C(=O)O)CC5)C6)c4Cl)c3C#N)n2C)C1 [Compound 152, trans-4-(2-(2-((2-chloro-2′-cyano-3′-(5-isopropyl-1-methyl-4,5,6,7-tetrahydro-1H-imidazo[4,5-c]pyridine-2-carboxamido)-[1,1′-biphenyl]-3-yl)carbamoyl)-1-methyl-1,4,6,7-tetrahydro-5H-imidazo[4,5-c]pyridin-5-yl)ethyl)cyclohexane-1-carboxylic acid]
CCC1(C(=O)O)CCC(N2CCc3c(nc(C(=O)Nc4cccc(-c5cccc(NC(=O)c6nc7c(n6C)CCN(C6CCOCC6)C7)c5Cl)c4Cl)n3C)C2)CC1 (stereo not shown) [Example 99, 4-(2-((2,2′-dichloro-3′-(1-methyl-5-(tetrahydro-2H-pyran-4-yl)-4,5,6,7-tetrahydro-1H-imidazo[4,5-c]pyridine-2-carboxamido)-[1,1′-biphenyl]-3-yl)carbamoyl)-1-methyl-1,4,6,7-tetrahydro-5H-imidazo[4,5-c]pyridin-5-yl)-1-ethylcyclohexane-1-carboxylic acid]
Cc1c(NC(=O)c2nc3c(n2C)CCN(C2CCOCC2)C3)cccc1-c1cccc(NC(=O)c2nc3c(n2C)CCN(CC[C@H]2CC[C@H](C(=O)O)CC2)C3)c1Cl [Example 122, trans-4-(2-(2-((2-chloro-2′-methyl-3′-(1-methyl-5-(tetrahydro-2H-pyran-4-yl)-4,5,6,7-tetrahydro-1H-imidazo[4,5-c]pyridine-2-carboxamido)-[1,1′-biphenyl]-3-yl)carbamoyl)-1-methyl-1,4,6,7-tetrahydro-5H-imidazo[4,5-c]pyridin-5-yl)ethyl)cyclohexane-1-carboxylic acid]
CCC1(C(=O)O)CCC(N2CCc3c(nc(C(=O)Nc4cccc(-c5cccc(NC(=O)c6nc7c(n6C)CCN(C6CCOCC6)C7)c5Cl)c4C)n3C)C2)CC1 (stereo not shown) [Example 112, 4-(2-((2′-chloro-2-methyl-3′-(1-methyl-5-(tetrahydro-2H-pyran-4-yl)-4,5,6,7-tetrahydro-1H-imidazo[4,5-c]pyridine-2-carboxamido)-[1,1′-biphenyl]-3-yl)carbamoyl)-1-methyl-1,4,6,7-tetrahydro-5H-imidazo[4,5-c]pyridin-5-yl)-1-ethylcyclohexane-1-carboxylic acid]
Cc1c(NC(=O)c2nc3c(n2C)CCN(C2CCOCC2)C3)cccc1-c1cccc(NC(=O)c2nc3c(n2C)CCN(C2CCC(C(=O)O)CC2)C3)c1Cl (stereo not shown) [Example 125, 4-(2-((2-chloro-2′-methyl-3′-(1-methyl-5-(tetrahydro-2H-pyran-4-yl)-4,5,6,7-tetrahydro-1H-imidazo[4,5-c]pyridine-2-carboxamido)-[1,1′-biphenyl]-3-yl)carbamoyl)-1-methyl-1,4,6,7-tetrahydro-5H-imidazo[4,5-c]pyridin-5-yl)cyclohexane-1-carboxylic acid]
C[C@H](O)CN1CCc2c(nc(C(=O)Nc3cccc(-c4cccc(NC(=O)c5nc6c(n5C)CCN(C[C@H]5CC[C@@H](C(=O)O)CC5)C6)c4Cl)c3Cl)n2C)C1 [Example 75, cis-4-((2-((2,2′-dichloro-3′-(5-((S)-2-hydroxypropyl)-1-methyl-4,5,6,7-tetrahydro-1H-imidazo[4,5-c]pyridine-2-carboxamido)-[1,1′-biphenyl]-3-yl)carbamoyl)-1-methyl-1,4,6,7-tetrahydro-5H-imidazo[4,5-c]pyridin-5-yl)methyl)cyclohexane-1-carboxylic acid]
